Data from patent US10925890B2, “Use of dextran sulfate” (TX MEDIC AB, priority 2014, dated 2021).
Entries after “also recorded” stand apart in the source; their conditions may differ.

Columns and labels:
tMCAO rat-stroke model [1] = assay: Neurological test score (Neuroscore, mNRS), tMCAO rat; type: in vivo; conditions: groups 2M (30 mg/kg 3 times per week) and 3M (daily); day 7 up to day 28
Description: (§1) Transient middle cerebral artery occlusion was performed according to the method previously described in Stroke 29, 2162-2170 (1998). The right common carotid artery (CCA) was exposed through a midline neck incision and carefully dissected free from surrounding nerves and fascia—from its bifurcation to the base of the skull. The occipital artery branches of the external carotid artery (ECA) were then isolated, and these branches were dissected and coagulated. The ECA was dissected further distally and coagulated along with the terminal lingual and maxillary artery branches, which was then divided. The internal carotid artery (ICA) was isolated and carefully separated from the adjacent vagus nerve, and the pterygopalatine artery was ligated close to its origin with a 5-0 nylon suture (SMI, Belgium). Next a 4-0 silk suture was tied loosely around the mobilized ECA stump, and a 4 cm length of 4-0 monofilament nylon suture (the tip of the suture was blunted by using a flame, and the suture was coated with polylysine, prior to insertion) was inserted through the proximal ECA into the ICA and thence into the circle of Willis, effectively occluding the MCA. The surgical wound was closed and the animals were returned to their cages to recover from anesthesia. […]

tMCAO rat-stroke model [2] = assay: Body swing test, tMCAO rat; type: in vivo; conditions: all treated rats; day 7 up to day 28
Description: Transient middle cerebral artery occlusion was performed according to the method previously described in Stroke 29, 2162-2170 (1998). The right common carotid artery (CCA) was exposed through a midline neck incision and carefully dissected free from surrounding nerves and fascia—from its bifurcation to the base of the skull. The occipital artery branches of the external carotid artery (ECA) were then isolated, and these branches were dissected and coagulated. The ECA was dissected further distally and coagulated along with the terminal lingual and maxillary artery branches, which was then divided. The internal carotid artery (ICA) was isolated and carefully separated from the adjacent vagus nerve, and the pterygopalatine artery was ligated close to its origin with a 5-0 nylon suture (SMI, Belgium). […]
The rat was held approximately one inch from the base of its tail. […] A swing was recorded whenever the rat moves its head out of the vertical axis to either side. Before attempting another swing, the rat was returned to the vertical position for the next swing to be counted. Twenty total swings were counted. […] Body swing scores were expressed as a percentage of rightward over total swings. […]

tMCAO rat-stroke model [3] = assay: Cerebral blood flow assessment (Flow-R Laser Doppler), tMCAO rat; type: in vivo; conditions: day 29
Description: as §1, with “MCA.” for “MCA. The surgical wound was closed and the animals were returned to their cages to recover from anesthesia.”
Evaluation of the blood flow on the brain cortex and vessel constriction was carried out using Flow-R Laser Doppler system, in which intracranial blood flow and vessels diameter (constriction/dilatation) was monitored. […]

[4] = Mortality and clinical signs, tMCAO rat study; type: in vivo; conditions: for Rats that died within 10 hours after dosing: vehicle group 1M: 6
Description: Started two hours after occlusion (immediately after reperfusion), animals in groups 2M and 3M (dextran sulfate at doses of 30 mg/kg three times a week or 15 mg/kg daily) and animals in group 1M (vehicle control) were injected subcutaneously, see Table 10.
Eighteen rats died during the study. One rat died just after reperfusion before dosing, and seventeen rats within 10 hours after dosing (6 in group 1M, 6 in group 2M and 5 in group 3M).

[5] = test system: rat model of myocardial infarction; assay: SMA vascular density count, rat myocardial infarction model; type: in vivo; conditions: group 2M, 15 mg/kg 3 times/week for 3 weeks; 35 days after MI induction; infarct region
Description: On the day of surgery the animals were anesthetized with a combination of 90 mg/kg ketamine and 10 mg/kg xylazine. In order to induce MI, under anesthesia and analgesia, the rat chest was opened by left thoracotomy, the pericardium was removed and the proximal left coronary artery was permanently occluyded with an intramural stitch (Circulation 117, 1388-1396 (2008)). Two hours post surgery, each animal in all treated groups were injected s.c. with dextran sulfate or saline vehicle according to Table 11.
For the purpose of MI size identification, Masson's Trichrome Staining was used. Nine hearts of a treated (2M) group and eight of the untreated (1M) group were sectioned transversely into five sections that were imbedded in paraffin. Five paraffin sections at 5 μm were performed on a Lika microtome. All sections were stained according to standard Masson's trichrome protocol. The sections were visualized in a computer-imaging system and infarct size was marked and calculated using the ImageJ program. Infarct size was expressed as percentage of infarct area (unstained) versus the total left ventricle area. For each animal, five serial sections including one containing the ligature were analyzed and the mean value of all sections for each heart was calculated. Immunohistobchemistry marker (Smooth Muscle Actin—SMA) was used for evaluating the vascular density count. […]

[6] = test system: Rat Hind-Limb Ischemia Model; assay: In vivo assessment of limb function, rat hind-limb ischemia; conditions: for Incidence of limb function score 0 / Incidence of limb function score 1 / Incidence of limb function score 2 / Incidence of limb function score 3: Day 28
Description: The femoral artery and vein were ligated twice with 4-0 silk thread and transected between the ligatures. The wound was closed with 3-0 silk thread and the rats were allowed to recover.
Animals in group 4M and 5M were injected s.c. once on Day 8, see Table 12.
Semi-quantitative assessment of impaired use of the ischemic limb was performed once a week post-surgery using the scale presented in Table 7. Scoring was performed by personnel blinded to the treatment.

[7] = group 2M, 30 mg/kg s.c. 3 times a week
[8] = group 3M, 30 mg/kg (as printed in Table 12) s.c. 3 times a week
[9] = group 4M, 30 mg/kg s.c. administered once
[10] = group 5M, 3 mg/kg s.c. administered once

Dextran sulfate
Neuroscore (0-18) compared to vehicle treated control (tMCAO rat-stroke model [1]): Statistically significant differences
Body swing test compared to vehicle control (tMCAO rat-stroke model [2]): statistically significant improvement
Vessels diameter ratio versus control (tMCAO rat-stroke model [3]): increased
Cerebral blood perfusion rate versus control vehicle-treated group (tMCAO rat-stroke model [3]; groups 2M and 3M, damaged hemisphere): Statistically significant improvement
Adverse clinical signs ([4]; all animal groups): No adverse clinical signs unrelated to the model
Rats that died within 10 hours after dosing [4, 7]: 6 rats
Rats that died within 10 hours after dosing ([4]; group 3M, 15 mg/kg s.c. daily): 5 rats
SMA capillary density compared to vehicle control [5]: higher SMA capillary density; also recorded: trend of increase in capillaries density
Incidence of limb function score 0 [6, 7]: 100%
Incidence of limb function score 1 [6, 7]: 0%
Incidence of limb function score 2 [6, 7]: 0%
Incidence of limb function score 3 [6, 7]: 0%
Incidence of limb function score 0 [6, 8]: 88%
Incidence of limb function score 1 [6, 8]: 12%
Incidence of limb function score 2 [6, 8]: 0%
Incidence of limb function score 3 [6, 8]: 0%
Incidence of limb function score 0 [6, 9]: 100%
Incidence of limb function score 1 [6, 9]: 0%
Incidence of limb function score 2 [6, 9]: 0%
Incidence of limb function score 3 [6, 9]: 0%
Incidence of limb function score 0 [6, 10]: 94%
Incidence of limb function score 1 [6, 10]: 6%
Incidence of limb function score 2 [6, 10]: 0%
Incidence of limb function score 3 [6, 10]: 0%
Limb function score, treated groups vs control ([6]; groups 2M, 3M, 4M and 5M vs 1M, Day 14 through Day 28): statistically significant differences
